± gives the expanded uncertainty stated by the source.
How the values were obtained:
[1] = 100 kPa, Liquid; for viscosity: Capillary tube (Ostwald / Ubbelohde) method; for speed of sound: Frequency=2 MHz, Linear variable-path acoustic interferometer; for mass density: Vibrating tube method
[2] = xn = mol fraction of the nth substance listed; conditions: 100 kPa, Liquid, x2 = 0; for viscosity: Capillary tube (Ostwald / Ubbelohde) method; for speed of sound: Frequency=2 MHz, Linear variable-path acoustic interferometer; for mass density: Vibrating tube method

SMILES | viscosity ([1]; 303.15 K) | speed of sound ([1]; 303.15 K) | mass density ([1]; 303.15 K) | viscosity ([1]; 308.15 K) | speed of sound ([1]; 308.15 K) | mass density ([1]; 308.15 K) | viscosity ([1]; 313.15 K) | mass density ([1]; 313.15 K) | viscosity ([1]; 318.15 K) | speed of sound ([1]; 318.15 K) | mass density ([1]; 318.15 K) | viscosity ([2]; 303.15 K) | speed of sound ([2]; 303.15 K) | mass density ([2]; 303.15 K) | viscosity ([2]; 308.15 K) | speed of sound ([2]; 308.15 K) | mass density ([2]; 308.15 K) | viscosity ([2]; 313.15 K) | speed of sound ([2]; 313.15 K) | mass density ([2]; 313.15 K) | further results
O=[N+]([O-])c1ccccc1 [nitrobenzene] | 1.627 ± 0.1 mPa·s | 1438 ± 8.8 m/s | 1193.45 ± 20 kg/m3 | 1.498 ± 0.1 mPa·s | 1420 ± 8.7 m/s | 1188.29 ± 20 kg/m3 | 1.388 ± 0.1 mPa·s | 1183.69 ± 20 kg/m3 | 1.275 ± 0.1 mPa·s | 1385 ± 8.5 m/s | 1177.32 ± 20 kg/m3 |  |  |  |  |  |  |  |  |  | 
Clc1ccccc1 [chlorobenzene] | 0.712 ± 0.1 mPa·s | 1248.2 ± 7.7 m/s | 1095.54 ± 20 kg/m3 | 0.675 ± 0.1 mPa·s | 1226 ± 7.5 m/s | 1089.72 ± 20 kg/m3 | 0.634 ± 0.1 mPa·s | 1084.71 ± 20 kg/m3 | 0.602 ± 0.1 mPa·s | 1181 ± 7.3 m/s | 1079.45 ± 20 kg/m3 |  |  |  |  |  |  |  |  |  | speed of sound ([1]; 313.15 K): 1206 ± 7.4 m/s
Brc1ccccc1 [bromobenzene] + Nc1cccc(Cl)c1 |  |  |  |  |  |  |  |  |  |  |  | 0.982 ± 0.1 mPa·s | 1136 ± 7 m/s | 1481.52 ± 20 kg/m3 | 0.953 ± 0.1 mPa·s | 1122 ± 6.9 m/s | 1475.36 ± 20 kg/m3 | 0.892 ± 0.1 mPa·s | 1109 ± 6.8 m/s | 1468.02 ± 20 kg/m3 | viscosity ([2]; 318.15 K): 0.848 ± 0.1 mPa·s; speed of sound ([2]; 318.15 K): 1099 ± 6.7 m/s; mass density ([2]; 318.15 K): 1461.36 ± 20 kg/m3
Brc1ccccc1 [bromobenzene] | 0.982 ± 0.1 mPa·s | 1136 ± 7 m/s | 1481.52 ± 20 kg/m3 | 0.953 ± 0.1 mPa·s | 1122 ± 6.9 m/s | 1475.36 ± 20 kg/m3 | 0.892 ± 0.1 mPa·s | 1468.02 ± 20 kg/m3 | 0.848 ± 0.1 mPa·s | 1099 ± 6.7 m/s | 1461.36 ± 20 kg/m3 |  |  |  |  |  |  |  |  |  | speed of sound ([1]; 313.15 K): 1109 ± 6.8 m/s
Clc1ccccc1 [chlorobenzene] + Nc1cccc(Cl)c1 |  |  |  |  |  |  |  |  |  |  |  | 0.712 ± 0.1 mPa·s | 1248.2 ± 7.7 m/s | 1095.54 ± 20 kg/m3 | 0.675 ± 0.1 mPa·s | 1226 ± 7.5 m/s | 1089.72 ± 20 kg/m3 | 0.634 ± 0.1 mPa·s | 1206 ± 7.4 m/s | 1084.71 ± 20 kg/m3 | viscosity ([2]; 318.15 K): 0.602 ± 0.1 mPa·s; speed of sound ([2]; 318.15 K): 1181 ± 7.3 m/s; mass density ([2]; 318.15 K): 1079.45 ± 20 kg/m3
O=[N+]([O-])c1ccccc1 [nitrobenzene] + Nc1cccc(Cl)c1 |  |  |  |  |  |  |  |  |  |  |  | 1.627 ± 0.1 mPa·s | 1438 ± 8.8 m/s | 1193.45 ± 20 kg/m3 | 1.498 ± 0.1 mPa·s | 1420 ± 8.7 m/s | 1188.29 ± 20 kg/m3 | 1.388 ± 0.1 mPa·s | 1402 ± 8.6 m/s | 1183.69 ± 20 kg/m3 | viscosity ([2]; 318.15 K): 1.275 ± 0.1 mPa·s; speed of sound ([2]; 318.15 K): 1385 ± 8.5 m/s; mass density ([2]; 318.15 K): 1177.32 ± 20 kg/m3

Source: the NIST ThermoML archive (doi:10.1016/j.jct.2016.05.015)
